These results are taken from US20060040312A1 (priority 1999, published 2006).

For series [1], the system named is primary cultures of cortex.
The subject of another series is cardiac myocytes. Format: cell-based, rat.
Series [2] deals with histamine-contracted, isolated Guinea pig tracheal segments.
The subject of series [3] is primary cultures of cortex. Format: cell-based, rat.
Series [4] has as its system primary cortical cultures.
Series [5] has as its target Shaker H4 potassium channel (Drosophila melanogaster, UniProt P08510). The following applies: cited from earlier work.
For the next series, the target named is F425G Shaker mutation (Drosophila melanogaster, UniProt P08510, F425G). The following applies: cited from earlier work.
Sequence of F425G Shaker mutation (P08510 whole entry F425G): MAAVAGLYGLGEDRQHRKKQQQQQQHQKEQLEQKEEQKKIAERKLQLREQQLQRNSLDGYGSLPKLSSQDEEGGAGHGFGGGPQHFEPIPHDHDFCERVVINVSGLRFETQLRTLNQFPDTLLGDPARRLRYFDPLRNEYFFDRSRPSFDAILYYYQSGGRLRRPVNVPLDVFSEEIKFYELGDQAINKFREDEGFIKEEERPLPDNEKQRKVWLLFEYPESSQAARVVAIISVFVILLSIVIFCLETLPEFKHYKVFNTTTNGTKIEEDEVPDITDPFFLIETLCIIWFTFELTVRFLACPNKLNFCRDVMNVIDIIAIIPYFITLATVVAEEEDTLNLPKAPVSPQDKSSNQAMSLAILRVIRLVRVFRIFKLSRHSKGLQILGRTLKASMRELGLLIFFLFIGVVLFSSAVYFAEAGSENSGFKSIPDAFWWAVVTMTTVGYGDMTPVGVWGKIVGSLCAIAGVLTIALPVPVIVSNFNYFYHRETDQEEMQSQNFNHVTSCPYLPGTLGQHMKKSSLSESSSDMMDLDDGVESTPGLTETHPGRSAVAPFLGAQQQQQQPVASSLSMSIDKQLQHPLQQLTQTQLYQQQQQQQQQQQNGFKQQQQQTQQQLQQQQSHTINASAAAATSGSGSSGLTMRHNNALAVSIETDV

Sequence of Shaker H4 potassium channel (P08510 whole entry): as the sequence (P08510 whole entry F425G) above, with G425F counted along it

On to `Nc1ccncc1` [4-AP, 4-aminopyridine], for which the “effect of K+ channel antagonist on the hyperpolarization seen with 100 nM κ-PVIIA” value in series [1] was “without any detectable effect”.
For `COc1ccc(Cl)cc1C(=O)NCCc1ccc(S(=O)(=O)NC(=O)NC2CCCCC2)cc1` [Glibenclamide], the “sensitivity of κ-PVIIA-evoked currents to KATP antagonist” value with cardiac myocytes is given as “sensitive”. Also, in series [2], the “effect of KATP channel antagonist on the κ-PVIIA response” value is given as “reduce effects of κ-PVIIA”. The “effect of KATP antagonist on the κ-PVIIA induced hyperpolarization” value in series [1] is recorded as “significant reductions”.
As for `CCCCNC(=O)NS(=O)(=O)c1ccc(C)cc1` [Tolbutamide], the “sensitivity of κ-PVIIA-evoked currents to KATP antagonist” value in series [3] is reported as “sensitive”. Further, in series [2], the “effect of KATP channel antagonist on the κ-PVIIA response” value is reported as “reduce effects of κ-PVIIA”. For the same molecule, in series [1], the “effect of KATP antagonist on the κ-PVIIA induced hyperpolarization” value is listed as “significant reductions” and the “inhibition of the κ-PVIIA (100 nM) response” value is reported as “inhibition”. In the series with cortical cells, the “effect of KATP antagonist on κ-PVIIA protection against glutamate cytotoxicity” value is “blocked”.
With “Iberiotoxin (QFTDVDCSVSKECWSVCKDLFGVDRGKCMGKKCRCYQ; UniProt P24663 1-37, looked up) [IBTX]”, the “effect of K+ channel antagonist on the hyperpolarization seen with 100 nM κ-PVIIA” value in series [1] is reported as “without any detectable effect”.
On to Triton [reference compound], for which the “increase in fluorescence (Enzchek protease-sensitive dye)” value in series [4] is reported as roughly 14%.
On to charybdotoxin [reference compound], for which the “block / inhibition of the Shaker channel” value in series [5] is given as “inhibit”. In addition, the “effect of F425G Shaker mutation on toxin affinity / sensitivity” value with F425G Shaker mutation is on record as “increases charybdotoxin affinity by three orders of magnitude”.
